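Method: 48-hour compound exposure of cells in 96-well plates, five concentrations, linear interpolation of endpoints. The concentration for 50% growth inhibition is given as GI50. At the TGI there is no net growth.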
How the values were obtained:
Test in all cases: NCI anticancer screen, dose series, 48 h
[1] = test system: UO-31 renal
[2] = test system: TK-10 renal
[3] = test system: HOP-62 NSCLC
[4] = test system: SN12C renal
[5] = test system: U251 CNS
[6] = test system: LOX IMVI melanoma
[7] = test system: 786-0 renal
[8] = test system: NCI/ADR-RES ovarian
[9] = test system: CAKI-1 renal
[10] = test system: SNB-75 CNS

With `COc1cc(C(=O)NC2CCN(C)CC2)c(F)cc1Nc1ncc2c(n1)N(C1CCCC1)CC(F)(F)C(=O)N2C` the TGI [1] was 10.5 µM, the TGI [2] was 12.6 µM and the GI50 [3] was < 0.0141 µM. It also gave a TGI [3] of 13.2 µM, a GI50 [4] of 0.0604 µM and a TGI [4] of 14.4 µM. For the same compound, the GI50 [5] was < 0.0204 µM, the TGI [5] was 14.5 µM and the GI50 [6] was < 0.0186 µM. It also gave a TGI [6] of 4.96 µM, a GI50 [7] of 0.0435 µM and a TGI [7] of 11.7 µM. The GI50 [8] was < 0.0329 µM, the TGI [8] was 13.6 µM and the GI50 [9] was < 0.0243 µM. The TGI [9] was 3.71 µM.
With `Cc1ccc(CNc2c3ccccc3nc3cc(NC(=O)CCN4CCCC4)ccc23)cc1` the GI50 [10] was 1.06 µM, the TGI [10] was 2.26 µM and the GI50 [1] was 1.25 µM. It also gave a TGI [1] of 2.54 µM, a GI50 [2] of 1.23 µM and a TGI [2] of 2.85 µM. It also gave a GI50 [3] of 0.68 µM, a TGI [3] of 2.38 µM and a GI50 [4] of 0.479 µM. For the same compound, the TGI [4] was 1.74 µM, the GI50 [5] was 0.688 µM and the TGI [5] was 2.05 µM. For the same compound, the GI50 [6] was 0.515 µM, the TGI [6] was 1.76 µM and the GI50 [7] was 0.732 µM. The TGI [7] was 2.04 µM, the GI50 [8] was 4.02 µM and the TGI [8] was 24.2 µM. The GI50 [9] was 1.23 µM and the TGI [9] was 3.91 µM.
For `C[CH2][Sn]([CH2]C)([O]C(=O)C(OC(C)=O)c1ccccc1)[O]C(=O)C(OC(C)=O)c1ccccc1` (stereo not drawn), the GI50 [10] was 31.9 µM, the TGI [10] was 99.5 µM and the GI50 [1] was 19.5 µM. It also gave a TGI [1] of 43.4 µM, a GI50 [2] of 18.8 µM and a TGI [2] of 33 µM. The GI50 [3] was > 100 µM, the TGI [3] was > 100 µM and the GI50 [4] was > 100 µM. The TGI [4] was > 100 µM, the GI50 [5] was 37.6 µM and the TGI [5] was > 100 µM. For the same compound, the GI50 [6] was 18.2 µM, the TGI [6] was 35.4 µM and the GI50 [7] was 19.9 µM. For the same compound, the TGI [7] was 34.8 µM, the GI50 [8] was > 100 µM and the TGI [8] was > 100 µM. The GI50 [9] was 72 µM and the TGI [9] was > 100 µM.
`C=C1C(=O)OC2C1C(OC(=O)/C(C)=C/C)CC(O)(CCl)C1C(O)C3OC3(C)C21O` (stereo not drawn) was tested, and the TGI [10] was > 50 µM, the TGI [2] was > 50 µM and the TGI [3] was > 50 µM. The TGI [4] was > 50 µM, the TGI [5] was > 50 µM and the TGI [6] was > 50 µM. For the same compound, the TGI [7] was 39 µM, the TGI [8] was > 50 µM and the TGI [9] was > 50 µM.
Work on `COc1ccc(/C=C2\CCCC3=C2NC(N)=NC3c2ccc(OC)c(OC)c2)cc1OC` (stereo not drawn) yielded a GI50 [10] of 2.41 µM, a TGI [10] of 13.8 µM and a GI50 [1] of 11.8 µM. The TGI [1] was > 57.1 µM, the GI50 [2] was 4.68 µM and the TGI [2] was 27.9 µM. The GI50 [3] was 4.04 µM, the TGI [3] was > 66.9 µM and the GI50 [4] was > 39.6 µM. The TGI [4] was > 100 µM, the GI50 [5] was 2.53 µM and the TGI [5] was > 91.9 µM. The GI50 [6] was 4.63 µM, the TGI [6] was 41.1 µM and the GI50 [7] was 14.2 µM. For the same compound, the TGI [7] was > 100 µM, the GI50 [8] was 1.93 µM and the TGI [8] was > 100 µM. For the same compound, the GI50 [9] was 4.11 µM and the TGI [9] was > 100 µM.
In the case of `CCOc1ccccc1N=Nc1c(C)[nH]n(-c2nc(-c3ccccc3)cs2)c1=O`, the GI50 [10] is reported as 14.3 µM, the TGI [10] is reported as 48.3 µM and the GI50 [1] is reported as > 65.1 µM. The TGI [1] was > 100 µM, the GI50 [2] was 43.4 µM and the TGI [2] was > 94.2 µM. The GI50 [3] was 35.1 µM, the TGI [3] was > 100 µM and the GI50 [4] was > 94.8 µM. For the same compound, the TGI [4] was > 100 µM, the GI50 [5] was 36.2 µM and the TGI [5] was > 100 µM. For the same compound, the GI50 [6] was > 100 µM, the TGI [6] was > 100 µM and the GI50 [7] was 35.4 µM. For the same compound, the TGI [7] was > 100 µM, the GI50 [8] was 37.6 µM and the TGI [8] was > 100 µM. The GI50 [9] was > 54.2 µM and the TGI [9] was > 100 µM.
In the case of `O=C(COc1ccc(/C=C2\Oc3ccccc3C2=O)cc1)Nc1nc2c(s1)CCCC2`, the GI50 [10] is reported as 0.221 µM, the TGI [10] is reported as 0.609 µM and the GI50 [1] is reported as 1.87 µM. The TGI [1] was > 49.5 µM, the GI50 [2] was 26.2 µM and the TGI [2] was > 87.6 µM. The GI50 [3] was 22.5 µM, the TGI [3] was 97.9 µM and the GI50 [4] was 4.64 µM. The TGI [4] was > 92 µM, the GI50 [5] was 2.29 µM and the TGI [5] was > 100 µM. For the same compound, the GI50 [6] was 0.0175 µM, the TGI [6] was 0.0317 µM and the GI50 [7] was 0.818 µM. The TGI [7] was 31.7 µM, the GI50 [8] was 2.19 µM and the TGI [8] was > 59.1 µM. It also gave a GI50 [9] of 0.801 µM and a TGI [9] of 8.28 µM.
Compound `CC1(C)[C@@H](OC(N)=O)[C@H]2O[C@H]2[C@]2(CO)[C@H]3CC[C@]4(C)[C@@H](c5ccc(=O)oc5)[C@@H](Cl)C[C@]4(O)C3=CC[C@@H]12` has a GI50 [10] of 0.00467 µM, a TGI [10] of 0.0138 µM and a GI50 [1] of 0.00645 µM. The TGI [1] was 0.0228 µM, the GI50 [2] was 0.00555 µM and the TGI [2] was 0.015 µM. It also gave a GI50 [3] of 0.00432 µM, a TGI [3] of 0.00847 µM and a GI50 [4] of 0.00766 µM. The TGI [4] was 0.0325 µM, the GI50 [5] was 0.00858 µM and the TGI [5] was 0.0297 µM. The GI50 [6] was 0.00595 µM, the TGI [6] was 0.0157 µM and the GI50 [7] was 0.0052 µM. It also gave a TGI [7] of 0.0136 µM, a GI50 [8] of 0.00672 µM and a TGI [8] of 0.0174 µM. It also gave a GI50 [9] of 0.00521 µM and a TGI [9] of 0.0132 µM.
For `COc1c2c(nc3ccccc13)-c1cc3c(c(=O)n1C2)COC(=O)C3(O)CC(=O)N1CCOCC1` (stereo not drawn), the TGI [10] was 11.6 µM, the TGI [1] was 68.9 µM and the TGI [2] was > 100 µM. It also gave a TGI [3] of 20.7 µM, a TGI [4] of 25.4 µM and a TGI [5] of 6.92 µM. The TGI [6] was 16.5 µM, the TGI [7] was 12.8 µM and the TGI [8] was > 48.8 µM. For the same compound, the TGI [9] was 54 µM.
For `O=C1c2ccccc2-c2c1c1ccccc1c(=O)n2CCN1CCOCC1`, the GI50 [10] was > 100 µM, the TGI [10] was > 100 µM and the GI50 [1] was 64.4 µM. The TGI [1] was > 100 µM, the GI50 [2] was 84.8 µM and the TGI [2] was > 100 µM. The GI50 [3] was > 100 µM, the TGI [3] was > 100 µM and the GI50 [4] was 94.1 µM. For the same compound, the TGI [4] was > 100 µM, the GI50 [5] was 52.4 µM and the TGI [5] was > 100 µM. The GI50 [6] was 40.5 µM, the TGI [6] was > 100 µM and the GI50 [7] was > 100 µM. For the same compound, the TGI [7] was > 100 µM, the GI50 [8] was > 100 µM and the TGI [8] was > 100 µM. It also gave a GI50 [9] of 23.9 µM and a TGI [9] of 90.3 µM.
`CN1CC[C@@H](c2c(O)cc(O)c3c(=O)cc(-c4ccccc4Cl)oc23)[C@@H]1CO` showed a GI50 [10] of 0.224 µM, a TGI [10] of 0.622 µM and a GI50 [1] of 0.268 µM. For the same compound, the TGI [1] was > 2.99 µM, the GI50 [2] was 0.293 µM and the TGI [2] was > 10 µM. For the same compound, the GI50 [3] was 0.304 µM, the TGI [3] was 1.2 µM and the GI50 [4] was 0.299 µM. The TGI [4] was > 10 µM, the GI50 [5] was 0.258 µM and the TGI [5] was > 10 µM. For the same compound, the GI50 [7] was 0.339 µM, the TGI [7] was > 10 µM and the GI50 [8] was 1.57 µM. For the same compound, the TGI [8] was > 10 µM, the GI50 [9] was 0.204 µM and the TGI [9] was > 2.56 µM.
For `Clc1nc(Cl)c2ncn(C/C=C/COc3cccc(OC/C=C/Cn4cnc5c(Cl)nc(Cl)nc54)c3)c2n1`, the GI50 [10] was 57.1 µM, the TGI [10] was > 100 µM and the GI50 [1] was > 100 µM. For the same compound, the TGI [1] was > 100 µM, the GI50 [2] was > 100 µM and the TGI [2] was > 100 µM. For the same compound, the GI50 [3] was 99.6 µM, the TGI [3] was > 100 µM and the GI50 [4] was > 100 µM. For the same compound, the TGI [4] was > 100 µM, the GI50 [5] was 65.6 µM and the TGI [5] was > 100 µM. The GI50 [6] was 25.9 µM, the TGI [6] was > 100 µM and the GI50 [7] was > 100 µM. For the same compound, the TGI [7] was > 100 µM, the GI50 [8] was > 100 µM and the TGI [8] was > 100 µM. For the same compound, the GI50 [9] was > 100 µM and the TGI [9] was > 100 µM.
For `COc1ccc(C2SC(C)C(=O)N2NC(=O)C(O)c2ccccc2)cc1OC` (stereo not drawn), the GI50 [10] was > 100 µM, the TGI [10] was > 100 µM and the GI50 [1] was > 100 µM. The TGI [1] was > 100 µM, the GI50 [2] was > 100 µM and the TGI [2] was > 100 µM. For the same compound, the GI50 [3] was > 100 µM, the TGI [3] was > 100 µM and the GI50 [4] was > 100 µM. The TGI [4] was > 100 µM, the GI50 [5] was > 100 µM and the TGI [5] was > 100 µM. The GI50 [6] was > 100 µM, the TGI [6] was > 100 µM and the GI50 [7] was > 100 µM. The TGI [7] was > 100 µM, the GI50 [8] was > 100 µM and the TGI [8] was > 100 µM. For the same compound, the GI50 [9] was > 100 µM and the TGI [9] was > 100 µM.

Source: PubChem BioAssay (NCI)
